Experiments:
Type in all cases: in vivo
Details in all cases: 250 g/h, evaluated after 13 days
[1] = test system: Alopecurus myosuroides (ALOMY); assay: Pre-emergence herbicidal glasshouse test, percentage damage
In short: (§1)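 Spray solution: acetone/water (50:50), 0.5% Tween 20, applied at 250 g/h. Timing: 1 d (pre-emergence) or 8 d (post-emergence) after sowing. Readout: % plant damage at 13 d, banded 1–5.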

[2] = test system: Avena fatua (AVEFA); assay: as above
In short: as §1

[3] = test system: Echinochloa crus-galli (ECHCG); assay: as above
In short: as §1

[4] = test system: Lolium perenne (LOLPE); assay: as above
In short: as §1

[5] = test system: Setaria faberi (SETFA); assay: as above
In short: as §1

[6] = test system: Setaria faberi (SETFA); assay: Post-emergence herbicidal glasshouse test, percentage damage
In short: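 Wheat, barley and Setaria faberi were sprayed post-emergence after 8 days' growth (24/16 °C, 14 h light, 65% humidity) with compound in acetone/water (50:50) containing 0.5% Tween 20, at the indicated rates. On wheat, compounds were also applied with cloquintocet-mexyl at 50 g/ha. Damage was scored after 13 days on a five-point scale (5=80-100% to 1=0-19%).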

[7] = test system: Alopecurus myosuroides (ALOMY); assay: as above
In short: as §1

[8] = test system: Avena fatua (AVEFA); assay: as above
In short: as §1

[9] = test system: Echinochloa crus-galli (ECHCG); assay: as above
In short: as §1

[10] = test system: Lolium perenne (LOLPE); assay: as above
In short: as §1

CC#Cc1cc(C)c(C2C(=O)CC3(CCN(C(=O)NC(=O)c4ccccc4F)CC3)CC2=O)c(C)c1 [Compound A167]
4 (4=60-79%): ALOMY PRE percentage damage (five point scale) [1] | AVEFA PRE percentage damage (five point scale) [2]
5 (5=80-100%): ECHCG PRE percentage damage (five point scale) [3] | LOLPE PRE percentage damage (five point scale) [4] | SETFA PRE percentage damage (five point scale) [5] | SETFA POST percentage damage (five point scale) [6] | ALOMY POST percentage damage (five point scale) [7] | AVEFA POST percentage damage (five point scale) [8] | ECHCG POST percentage damage (five point scale) [9] | LOLPE POST percentage damage (five point scale) [10]

CC#Cc1cc(C)c(C2C(=O)CC3(CCN(C(=O)NC(=O)c4ccc(C(F)(F)F)cn4)CC3)CC2=O)c(C)c1 [Compound A168]
5 (5=80-100%): ECHCG PRE percentage damage (five point scale) [3] | SETFA PRE percentage damage (five point scale) [5] | ECHCG POST percentage damage (five point scale) [9]
4 (4=60-79%): ALOMY PRE percentage damage (five point scale) [1] | AVEFA PRE percentage damage (five point scale) [2] | LOLPE PRE percentage damage (five point scale) [4] | SETFA POST percentage damage (five point scale) [6] | ALOMY POST percentage damage (five point scale) [7] | AVEFA POST percentage damage (five point scale) [8] | LOLPE POST percentage damage (five point scale) [10]

CC#Cc1cc(C)c(C2C(=O)CC3(CCN(C(=O)NC(C)(C)CC)CC3)CC2=O)c(C)c1 [Compound A169]
5 (5=80-100%): ALOMY PRE percentage damage (five point scale) [1] | AVEFA PRE percentage damage (five point scale) [2] | ECHCG PRE percentage damage (five point scale) [3] | LOLPE PRE percentage damage (five point scale) [4] | SETFA PRE percentage damage (five point scale) [5] | SETFA POST percentage damage (five point scale) [6] | ALOMY POST percentage damage (five point scale) [7] | AVEFA POST percentage damage (five point scale) [8] | ECHCG POST percentage damage (five point scale) [9] | LOLPE POST percentage damage (five point scale) [10]

CC#Cc1cc(C)c(C2C(=O)CC3(CCN(C(=O)C4=COCCO4)CC3)CC2=O)c(C)c1 [Compound A170]
4 (4=60-79%): ALOMY PRE percentage damage (five point scale) [1] | LOLPE PRE percentage damage (five point scale) [4] | SETFA PRE percentage damage (five point scale) [5]
2 (2=20-39%): AVEFA PRE percentage damage (five point scale) [2]
5 (5=80-100%): SETFA POST percentage damage (five point scale) [6] | ALOMY POST percentage damage (five point scale) [7] | AVEFA POST percentage damage (five point scale) [8] | ECHCG POST percentage damage (five point scale) [9] | LOLPE POST percentage damage (five point scale) [10]
3 (3=40-59%): ECHCG PRE percentage damage (five point scale) [3]

CC#Cc1cc(C)c(C2C(=O)CC3(CCN(C(=O)COC(C)C)CC3)CC2=O)c(C)c1 [Compound A171]
5 (5=80-100%): ALOMY PRE percentage damage (five point scale) [1] | AVEFA PRE percentage damage (five point scale) [2] | ECHCG PRE percentage damage (five point scale) [3] | LOLPE PRE percentage damage (five point scale) [4] | SETFA PRE percentage damage (five point scale) [5] | SETFA POST percentage damage (five point scale) [6] | ALOMY POST percentage damage (five point scale) [7] | AVEFA POST percentage damage (five point scale) [8] | ECHCG POST percentage damage (five point scale) [9] | LOLPE POST percentage damage (five point scale) [10]

CC#Cc1cc(C)c(C2C(=O)CC3(CCN(C(=O)CCOCC)CC3)CC2=O)c(C)c1 [Compound A172]
5 (5=80-100%): ALOMY PRE percentage damage (five point scale) [1] | AVEFA PRE percentage damage (five point scale) [2] | ECHCG PRE percentage damage (five point scale) [3] | LOLPE PRE percentage damage (five point scale) [4] | SETFA PRE percentage damage (five point scale) [5] | SETFA POST percentage damage (five point scale) [6] | ALOMY POST percentage damage (five point scale) [7] | AVEFA POST percentage damage (five point scale) [8] | ECHCG POST percentage damage (five point scale) [9] | LOLPE POST percentage damage (five point scale) [10]

CC#Cc1cc(C)c(C2C(=O)CC3(CCN(C(=O)[C@H]4COCCO4)CC3)CC2=O)c(C)c1 [Compound A173]
5 (5=80-100%): ALOMY PRE percentage damage (five point scale) [1] | AVEFA PRE percentage damage (five point scale) [2] | ECHCG PRE percentage damage (five point scale) [3] | LOLPE PRE percentage damage (five point scale) [4] | SETFA PRE percentage damage (five point scale) [5] | SETFA POST percentage damage (five point scale) [6] | ALOMY POST percentage damage (five point scale) [7] | AVEFA POST percentage damage (five point scale) [8] | ECHCG POST percentage damage (five point scale) [9] | LOLPE POST percentage damage (five point scale) [10]

CC#Cc1cc(C)c(C2C(=O)CC3(CCN(C(=O)[C@@H]4COCCO4)CC3)CC2=O)c(C)c1 [Compound A174]
5 (5=80-100%): ALOMY PRE percentage damage (five point scale) [1] | AVEFA PRE percentage damage (five point scale) [2] | ECHCG PRE percentage damage (five point scale) [3] | LOLPE PRE percentage damage (five point scale) [4] | SETFA PRE percentage damage (five point scale) [5] | SETFA POST percentage damage (five point scale) [6] | ALOMY POST percentage damage (five point scale) [7] | AVEFA POST percentage damage (five point scale) [8] | ECHCG POST percentage damage (five point scale) [9] | LOLPE POST percentage damage (five point scale) [10]

CC#Cc1cc(C)c(C2C(=O)CC3(CCN(C(=O)C4=COCCC4)CC3)CC2=O)c(C)c1 [Compound A175]
5 (5=80-100%): ALOMY PRE percentage damage (five point scale) [1] | ECHCG PRE percentage damage (five point scale) [3] | LOLPE PRE percentage damage (five point scale) [4] | SETFA PRE percentage damage (five point scale) [5] | SETFA POST percentage damage (five point scale) [6] | ALOMY POST percentage damage (five point scale) [7] | AVEFA POST percentage damage (five point scale) [8] | ECHCG POST percentage damage (five point scale) [9] | LOLPE POST percentage damage (five point scale) [10]
4 (4=60-79%): AVEFA PRE percentage damage (five point scale) [2]

CC#Cc1cc(C)c(C2C(=O)CC3(CCN(C(=O)NC(=O)c4ccc(OC)cn4)CC3)CC2=O)c(C)c1 [Compound A176]
2 (2=20-39%): AVEFA PRE percentage damage (five point scale) [2] | AVEFA POST percentage damage (five point scale) [8]
5 (5=80-100%): ECHCG PRE percentage damage (five point scale) [3] | LOLPE PRE percentage damage (five point scale) [4] | SETFA PRE percentage damage (five point scale) [5] | SETFA POST percentage damage (five point scale) [6] | ALOMY POST percentage damage (five point scale) [7] | ECHCG POST percentage damage (five point scale) [9] | LOLPE POST percentage damage (five point scale) [10]
3 (3=40-59%): ALOMY PRE percentage damage (five point scale) [1]

CC#Cc1cc(C)c(C2C(=O)CC3(CCN(C(=O)Nc4ncccc4C)CC3)CC2=O)c(C)c1 [Compound A177]
2 (2=20-39%): ALOMY PRE percentage damage (five point scale) [1]
4 (4=60-79%): AVEFA PRE percentage damage (five point scale) [2] | ALOMY POST percentage damage (five point scale) [7]
5 (5=80-100%): ECHCG PRE percentage damage (five point scale) [3] | LOLPE PRE percentage damage (five point scale) [4] | SETFA PRE percentage damage (five point scale) [5] | SETFA POST percentage damage (five point scale) [6] | AVEFA POST percentage damage (five point scale) [8] | ECHCG POST percentage damage (five point scale) [9] | LOLPE POST percentage damage (five point scale) [10]
